Molecules are shown by their SMILES. Bounds are passed on as bounds.

The source of these data is patent US7968584B2, “Substituted arylpyrazoles” (Pfizer Inc., priority 2005, dated 2011).

One assay deals with Ctenocephalides felis. As to the kind of experiment: flea membrane feed test. Conditions: Ctenocephalides felis; in vitro, adult cat fleas fed 2 hours through parafilm membrane on citrated dog blood containing compound; percentage killed recorded after overnight storage; dose responses n=5; read-out: Flea feed ED80 results. The method, then:
The flea membrane feed test is used to measure the biological activities of the compounds claimed. The assay involves in vitro testing against Ctenocephalides felis conducted according to the following general procedure.
Fleas are cultured in vitro using dog blood. 25-30 adult Ctenocephalides felis (cat flea) were collected and placed in a test chamber (50 ml polystyrene tube with fine nylon mesh sealing the end). Citrated dog blood was prepared by adding aqueous sodium citrate solution (10 ml, 20% w/v, 20 g sodium citrate in 100 ml water) to dog blood (250 ml). Test compounds were dissolved in dimethylsulfoxide to give a working stock solution of 4 mg/ml. The stock solution (12.5 μl) was added to citrated dog blood (5 ml) to give an initial test concentration of 10 μg/ml. For testing at 30 µg/ml, working stock solutions of 12 mg/ml were prepared.
Citrated dog blood containing the test compound (5 ml, 100 μg/ml) was placed into a plastic Petri dish lid, which was kept at 37° C. on a heated pad. Parafilm was stretched over the open top to form a tight membrane for the fleas to feed through. The test chamber containing the fleas was placed carefully onto the parafilm membrane and the fleas commenced feeding.
The fleas were allowed to feed for 2 hours and the test chambers were then removed and stored overnight at room temperature.
The fleas were observed and the percentage of fleas killed recorded. Compounds were initially tested at 100 μg/ml, wherefrom relevant dose responses (100, 30, 10, 3, 1, 0.3, 0.1 μg/ml) were conducted and repeated n=5. Data was plotted to generate ED80, ED90 & ED95 values.
With `CCOC(=O)Nc1c(C2(C(N)=O)CC2)c(C#N)nn1-c1c(Cl)cc(OC(F)(F)F)cc1Cl` [Example 37, ethyl {4-[1-(aminocarbonyl)cyclopropyl]-3-cyano-1-[2,6-dichloro-4-(trifluoromethoxy)phenyl]-1H-pyrazol-5-yl}carbamate], the EC80 is not above 1 mg/L.

With `N#Cc1nn(-c2c(Cl)cc(S(F)(F)(F)(F)F)cc2Cl)c(NCCF)c1C1(C(N)=O)CC1` [Example 16, 1-{3-cyano-1-[2,6-dichloro-4-pentafluorothiophenyl]-5-[(2-fluoroethyl)amino]-1H-pyrazol-4-yl}cyclopropanecarboxamide], the EC80 was not above 1 mg/L.

For `N#Cc1nn(-c2c(Cl)cc(S(F)(F)(F)(F)F)cc2Cl)c(Cl)c1C1(C(N)=O)CC1` [Example 86, 1-{5-chloro-3-cyano-1-[2,6-dichloro-4-pentafluorothiophenyl]-1H-pyrazol-4-yl}cyclopropanecarboxamide], the EC80 is not above 1 mg/L.

As for `N#Cc1nn(-c2c(Cl)cc(S(F)(F)(F)(F)F)cc2Cl)c(N)c1C1(C(N)=O)CC1(Cl)Cl` (stereo not shown) [Example 18, 1-{5-amino-3-cyano-1-[2,6-dichloro-4-pentafluorothiophenyl]-1H-pyrazol-4-yl}-2,2-dichlorocyclopropanecarboxamide], the EC80 is not above 1 mg/L.

As to `N#Cc1nn(-c2c(Cl)cc(C(F)(F)F)cc2Cl)c(N)c1C1(C(N)=O)CC1` [Example 2, 1-{5-amino-3-cyano-1-[2,6-dichloro-4-(trifluoromethyl)phenyl]-1H-pyrazol-4-yl}cyclopropanecarboxamide], the EC80 is not above 1 mg/L.

For the molecule `CC(C)OC(=O)Nc1c(C2(C(N)=O)CC2)c(C#N)nn1-c1c(Cl)cc(S(F)(F)(F)(F)F)cc1Cl` [Example 20, isopropyl {4-[1-(aminocarbonyl)cyclopropyl]-3-cyano-1-[2,6-dichloro-4-pentafluorothiophenyl]-1H-pyrazol-5-yl}carbamate], the EC80 was not above 1 mg/L.

On to `N#Cc1nn(-c2c(Cl)cc(S(F)(F)(F)(F)F)cc2Cl)c(NC(=O)OCC2(CF)CC2)c1C1(C(N)=O)CC1` [Example 27, [1-(fluoromethyl)cyclopropyl]methyl {4-[1-(aminocarbonyl)cyclopropyl]-3-cyano-1-[2,6-dichloro-4-pentafluorothiophenyl]-1H-pyrazol-5-yl}carbamate], for which the EC80 is not above 1 mg/L.

`CS(=O)(=O)C1(c2c(C#N)nn(-c3c(Cl)cc(S(F)(F)(F)(F)F)cc3Cl)c2N)CC1` [Example 1, 5-amino-1-[2,6-dichloro-4-pentafluorothiophenyl]-4-[1-(methylsulfonyl)cyclopropyl]-1H-pyrazole-3-carbonitrile]: the EC80 is not above 1 mg/L.

With `N#Cc1nn(-c2c(Cl)cc(S(F)(F)(F)(F)F)cc2Cl)c(NCC2CC2)c1C1(C(=O)NCc2ccncc2)CC1` [Example 19, 1-{3-cyano-5-[(cyclopropylmethyl)amino]-1-[2,6-dichloro-4-pentafluorothiophenyl]-1H-pyrazol-4-yl}-N-(pyridin-4-ylmethyl)cyclopropanecarboxamide], the EC80 is not above 1 mg/L.

The same assay, now with this note: in vitro, adult cat fleas fed 2 hours through parafilm membrane on citrated dog blood containing compound; percentage killed recorded after overnight storage; dose responses n=5.
In the case of `N#Cc1nn(-c2c(Cl)cc(S(F)(F)(F)(F)F)cc2Cl)c(NCCC(N)=O)c1C1(C(N)=O)CC1` [Example 32, N˜3˜-{4-[1-(aminocarbonyl)cyclopropyl]-3-cyano-1-[2,6-dichloro-4-pentafluorothiophenyl]-1H-pyrazol-5-yl}-beta-alaninamide], the “Flea feed ED80 results” value is recorded as “≦1 μg/ml”.

In the case of `N#Cc1nn(-c2c(Cl)cc(S(F)(F)(F)(F)F)cc2Cl)c(NCC2CC2)c1C1(C(=O)NCc2ccccn2)CC1` [Example 45, 1-{3-cyano-5-[(cyclopropylmethyl)amino]-1-[2,6-dichloro-4-pentafluorothiophenyl]-1H-pyrazol-4-yl}-N-(pyridin-2-ylmethyl)cyclopropanecarboxamide], the “Flea feed ED80 results” value is given as “≦1 μg/ml”.

For the molecule `N#Cc1nn(-c2c(Cl)cc(S(F)(F)(F)(F)F)cc2Cl)c(CNC(=O)OCC2CC2)c1C1(C(N)=O)CC1` [Example 101, cyclopropylmethyl {4-[1-(aminocarbonyl)cyclopropyl]-3-cyano-1-[2,6-dichloro-4-pentafluorothiophenyl]-1H-pyrazol-5-yl}methylcarbamate], the “Flea feed ED80 results” value is “≦1 μg/ml”.

For `N#Cc1nn(-c2c(Cl)cc(S(F)(F)(F)(F)F)cc2Cl)c(N)c1C1(C#N)CC1` [Example 11, 5-amino-4-(1-cyanocyclopropyl)-1-[2,6-dichloro-4-pentafluorothiophenyl]-1H-pyrazole-3-carbonitrile], the “Flea feed ED80 results” value is reported as “≦1 μg/ml”.
